Data published in US9920075B2, “Triazolopyridine and triazolopyrimidine inhibitors of myeloperoxidase” (BRISTOL-MYERS SQUIBB COMPANY, priority 2014, dated 2018).
Several values for one entry are separate records, joined by “and”; a condition that tells them apart may be missing. Equal entries are not always repeated. Where two headings read alike, the source gives them in different places.

Biological target: T1, myeloperoxidase (MPO) (Homo sapiens, UniProt P05164)
T1 sequence (P05164 49-745): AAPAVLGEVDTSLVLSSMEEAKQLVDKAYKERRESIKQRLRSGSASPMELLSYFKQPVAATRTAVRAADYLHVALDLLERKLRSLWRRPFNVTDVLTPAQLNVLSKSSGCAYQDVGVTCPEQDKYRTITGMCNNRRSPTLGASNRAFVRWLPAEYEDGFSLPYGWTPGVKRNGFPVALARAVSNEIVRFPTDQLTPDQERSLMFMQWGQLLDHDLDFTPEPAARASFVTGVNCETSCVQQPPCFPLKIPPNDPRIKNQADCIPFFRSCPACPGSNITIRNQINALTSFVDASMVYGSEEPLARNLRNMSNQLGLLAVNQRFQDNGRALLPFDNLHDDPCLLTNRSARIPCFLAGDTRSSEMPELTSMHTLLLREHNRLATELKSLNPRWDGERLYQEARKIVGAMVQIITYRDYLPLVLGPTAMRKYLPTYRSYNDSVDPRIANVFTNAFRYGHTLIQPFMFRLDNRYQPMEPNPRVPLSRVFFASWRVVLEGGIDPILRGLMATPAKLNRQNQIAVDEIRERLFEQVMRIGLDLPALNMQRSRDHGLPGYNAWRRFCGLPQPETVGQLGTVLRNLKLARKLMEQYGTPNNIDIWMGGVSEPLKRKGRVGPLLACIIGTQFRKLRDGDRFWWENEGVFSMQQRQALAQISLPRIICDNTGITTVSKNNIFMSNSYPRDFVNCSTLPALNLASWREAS
Experiment: MPO peroxidation assay (Amplex Red assay)
Type: biochemical
Conditions: MPO peroxidation (Amplex Red), ranges given
Procedure: MPO Peroxidation Assay (Amplex Red Assay)
MPO peroxidation activity was measured in 100 mM KPi (pH 7.4) by utilizing the non-fluorescent reagent Amplex Red (Invitrogen Cat. #A12222) which can be oxidized to the highly fluorescent resorufin. Amplex Red is oxidized by the peroxidase action of MPO to resorufin. […] Enzyme and compound were preincubated for ten minutes at room temperature.
After the ten minute preincubation, 25 μL of an Amplex Red mixture containing 200 μM Amplex Red and 10 mM H2O2 was added to the plate.
IC50 values were calculated by determining the slope of the linear portion of the kinetic trace (180-540 secs), and using that calculated slope to determine % inhibition occurring at each concentration of inhibitor using the following equation:
[formula] where A=minimal Y value (activity level of inhibited sample), B=maximal Y value (activity level of uninhibited sample), C=Log IC50, D=Hill Slope, x=concentration of inhibitor. MPO Chlorination Assay (APF Assay)

[1] = read-out: MPO peroxidation assay IC50 values (binned)

**Q.** With `Nc1cc(OCc2nn(-c3cccc(Cl)c3)c3c2CCNC3=O)c2nn[nH]c2n1` [Example 51, 3-(((5-Amino-3H-[1,2,3]triazolo[4,5-b]pyridin-7-yl)oxy)methyl)-1-(3-chlorophenyl)-5,6-dihydro-1H-pyrazolo[3,4-c]pyridin-7(4H)-one] as the compound, how does the IC50 [1] read?
**A.** The IC50 was 60 to 150 nM.

**Q.** With `Cc1nc(-c2ccccc2)oc1COc1cc(N)nc2[nH]nnc12` [Example 54, 7-((4-Methyl-2-phenyloxazol-5-yl)methoxy)-3H-[1,2,3]triazolo[4,5-b]pyridin-5-amine] as the compound, how does the IC50 [1] read?
**A.** Its IC50 is 60 to 150 nM.

**Q.** `COCc1nn(-c2ccccc2)nc1COc1cc(N)nc2[nH]nnc12` [Example 56, 7-((5-(Methoxymethyl)-2-phenyl-2H-1,2,3-triazol-4-yl)methoxy)-3H-[1,2,3]triazolo[4,5-b]pyridin-5-amine] was tested. Which IC50 [1] did it give?
**A.** The IC50 was 60 to 150 nM.

**Q.** `Cc1nn(-c2ccc(Br)cc2)nc1COc1cc(N)nc2[nH]nnc12` [Example 58, 7-((2-(4-Bromophenyl)-5-methyl-2H-1,2,3-triazol-4-yl)methoxy)-3H-[1,2,3]triazolo[4,5-b]pyridin-5-amine] was tested. Which IC50 [1] did it give?
**A.** The IC50 was 150 to 1000 nM.

**Q.** With `Cc1nn(-c2ccc(N3CCNCC3)cc2)nc1COc1cc(N)nc2[nH]nnc12` [Example 63, 7-((5-Methyl-2-(4-(piperazin-1-yl)phenyl)-2H-1,2,3-triazol-4-yl)methoxy)-3H-[1,2,3]triazolo[4,5-b]pyridin-5-amine] as the compound, how does the IC50 [1] read?
**A.** Its IC50 is 60 to 150 nM.

**Q.** Which IC50 (MPO peroxidation assay IC50 values (binned)) does the source give for `Nc1cc(OCc2nn(-c3ccccc3)nc2CO)c2nn[nH]c2n1` [Example 64, (5-(((5-Amino-3H-[1,2,3]triazolo[4,5-b]pyridin-7-yl)oxy)methyl)-2-phenyl-2H-1,2,3-triazol-4-yl)methanol] here?
**A.** The IC50 was 60 to 150 nM.

**Q.** How did the IC50 [1] turn out when `N#Cc1nn(-c2ccccc2)nc1COc1cc(N)nc2[nH]nnc12` [Example 65, 5-(((5-Amino-3H-[1,2,3]triazolo[4,5-b]pyridin-7-yl)oxy)methyl)-2-phenyl-2H-1,2,3-triazole-4-carbonitrile] was run?
**A.** The IC50 was ≤ 60 nM.

**Q.** How did the IC50 [1] turn out when `Cc1nn(Cc2ccccc2)nc1COc1cc(N)nc2[nH]nnc12` [Example 66, 7-((2-Benzyl-5-methyl-2H-1,2,3-triazol-4-yl)methoxy)-3H-[1,2,3]triazolo [4,5-b]pyridin-5-amine] was run?
**A.** Its IC50 is ≤ 60 nM.

**Q.** For `Cc1nn(C2CCNCC2)nc1COc1cc(N)nc2[nH]nnc12` [Example 68, 7-((5-Methyl-2-(piperidin-4-yl)-2H-1,2,3-triazol-4-yl)methoxy)-3H-[1,2,3]triazolo[4,5-b]pyridin-5-amine], which IC50 [1] is on record?
**A.** Its IC50 is 60 to 150 nM.

**Q.** Which IC50 [1] does the source give for `Cc1nn(CC2CCNC2)nc1COc1cc(N)nc2[nH]nnc12` (stereo not shown) [Example 69, 7-((5-Methyl-2-(pyrrolidin-3-ylmethyl)-2H-1,2,3-triazol-4-yl)methoxy)-3H-[1,2,3]triazolo[4,5-b]pyridin-5-amine] here?
**A.** Its IC50 is 150 to 1000 nM.

**Q.** For `Cc1nn(Cc2c[nH]cn2)nc1COc1cc(N)nc2[nH]nnc12` [Example 71, 7-((2-((1H-Imidazol-4-yl)methyl)-5-methyl-2H-1,2,3-triazol-4-yl)methoxy)-3H-[1,2,3]triazolo[4,5-b]pyridin-5-amine], which IC50 [1] is on record?
**A.** Its IC50 is 60 to 150 nM and 150 to 1000 nM.

**Q.** For `Cc1nn(C[C@@H]2C[C@H](Oc3ccccc3)CN2)nc1COc1cc(N)nc2[nH]nnc12` [Example 73, 7-((5-Methyl-2-(((2S,4S)-4-phenoxypyrrolidin-2-yl)methyl)-2H-1,2,3-triazol-4-yl)methoxy)-3H-[1,2,3]triazolo[4,5-b]pyridin-5-amine], which IC50 [1] is on record?
**A.** The IC50 was ≤ 60 nM.

**Q.** For `Cc1nn(Cc2cccc(C3CCNCC3)c2)nc1COc1cc(N)nc2[nH]nnc12` [Example 78, 7-((5-Methyl-2-(3-(piperidin-4-yl)benzyl)-2H-1,2,3-triazol-4-yl)methoxy)-3H-[1,2,3]triazolo[4,5-b]pyridin-5-amine], which IC50 [1] is on record?
**A.** The IC50 was ≤ 60 nM.

**Q.** `COc1ncc(Br)cc1COc1cc(N)nc2[nH]nnc12` [Example 81, 7-((5-Bromo-2-methoxypyridin-3-yl)methoxy)-3H-[1,2,3]triazolo[4,5-b]pyridin-5-amine] was tested. Which IC50 [1] did it give?
**A.** Its IC50 is ≤ 60 nM.

**Q.** Which IC50 [1] does the source give for `Nc1cc(OCc2ccc(C(F)(F)F)o2)c2nn[nH]c2n1` [Example 82, 7-((5-(Trifluoromethyl)furan-2-yl)methoxy)-3H-[1,2,3]triazolo[4,5-b]pyridin-5-amine] here?
**A.** The IC50 was ≤ 60 nM.

**Q.** Which IC50 [1] does the source give for `Nc1cc(OCC2CCN(c3ncccn3)CC2)c2nn[nH]c2n1` [Example 84, 7-((1-(Pyrimidin-2-yl)piperidin-4-yl)methoxy)-3H-[1,2,3]triazolo[4,5-b]pyridin-5-amine] here?
**A.** The IC50 was 60 to 150 nM.

**Q.** How did the IC50 [1] turn out when `Nc1cc(OCc2ncc(Br)cc2F)c2nn[nH]c2n1` [Example 87, 7-((5-Bromo-3-fluoropyridin-2-yl)methoxy)-3H-[1,2,3]triazolo[4,5-b]pyridin-5-amine] was run?
**A.** The IC50 was ≤ 60 nM.

**Q.** For `Nc1cc(OCc2cc(Cl)ncc2F)c2nn[nH]c2n1` [Example 88, 7-((2-Chloro-5-fluoropyridin-4-yl)methoxy)-3H-[1,2,3]triazolo[4,5-b]pyridin-5-amine], which IC50 [1] is on record?
**A.** The IC50 was 60 to 150 nM.

**Q.** How did the IC50 [1] turn out when `Nc1cc(OCc2ncccc2F)c2nn[nH]c2n1` [Example 89, 7-((3-Fluoropyridin-2-yl)methoxy)-3H-[1,2,3]triazolo[4,5-b]pyridin-5-amine] was run?
**A.** The IC50 was ≤ 60 nM.

**Q.** `Nc1cc(OCc2cnccc2Cl)c2nn[nH]c2n1` [Example 91, 7-((4-Chloropyridin-3-yl)methoxy)-3H-[1,2,3]triazolo[4,5-b]pyridin-5-amine] was tested. Which IC50 [1] did it give?
**A.** Its IC50 is 60 to 150 nM.

**Q.** `Nc1cc(OCc2ccc(Br)cn2)c2nn[nH]c2n1` [Example 92, 7-((5-Bromopyridin-2-yl)methoxy)-3H-[1,2,3]triazolo[4,5-b]pyridin-5-amine] was tested. Which IC50 [1] did it give?
**A.** The IC50 was 60 to 150 nM.

**Q.** Which IC50 [1] does the source give for `Cn1nc(COc2cc(N)nc3[nH]nnc23)cc1Br` [Example 93, 7-((5-Bromo-1-methyl-1H-pyrazol-3-yl)methoxy)-3H-[1,2,3]triazolo[4,5-b]pyridin-5-amine] here?
**A.** The IC50 was ≤ 60 nM.

**Q.** Which IC50 [1] does the source give for `Nc1cc(OCc2nc(Br)ccc2F)c2nn[nH]c2n1` [Example 95, 7-((6-Bromo-3-fluoropyridin-2-yl)methoxy)-3H-[1,2,3]triazolo[4,5-b]pyridin-5-amine] here?
**A.** The IC50 was ≤ 60 nM.

**Q.** How did the IC50 [1] turn out when `Cn1ccc(-c2ccc(F)c(COc3cc(N)nc4[nH]nnc34)n2)n1` [Example 96, 7-((3-Fluoro-6-(1-methyl-1H-pyrazol-3-yl)pyridin-2-yl)methoxy)-3H-[1,2,3]triazolo[4,5-b]pyridin-5-amine] was run?
**A.** Its IC50 is ≤ 60 nM.

**Q.** How did the IC50 [1] turn out when `Nc1cc(OCc2nc(-c3ccc(N4CCNCC4)nc3)ccc2F)c2nn[nH]c2n1` [Example 97, 7-((5-fluoro-6′-(piperazin-1-yl)-[2,3′-bipyridin]-6-yl)methoxy)-3H-[1,2,3] triazolo[4,5-b]pyridin-5-amine] was run?
**A.** Its IC50 is ≤ 60 nM.

**Q.** Which IC50 [1] does the source give for `Nc1cc(OCc2nc(-c3ccc(C4CC4)nc3)ccc2F)c2nn[nH]c2n1` [Example 98, 7-((6′-cyclopropyl-S-fluoro-[2,3′-bipyridin]-6-yl)methoxy)-3H-[1,2,3]triazolo[4,5-b] pyridin-5-amine] here?
**A.** Its IC50 is ≤ 60 nM.

**Q.** `Nc1cc(OCc2ncc(-c3ccc(N4CCNCC4)nc3)cc2F)c2nn[nH]c2n1` [Example 99, 7-((5-fluoro-6′-(piperazin-1-yl)-[3,3′-bipyridin]-6-yl)methoxy)-3H-[1,2,3] triazolo[4,5-b]pyridin-5-amine] was tested. Which IC50 [1] did it give?
**A.** The IC50 was ≤ 60 nM.

**Q.** Which IC50 [1] does the source give for `Nc1cc(OCc2ncc(-c3ccc(C4CC4)nc3)cc2F)c2nn[nH]c2n1` [Example 101, 7-((6′-cyclopropyl-5-fluoro-[3,3′-bipyridin]-6-yl)methoxy)-3H-[1,2,3]triazolo[4,5-b] pyridin-5-amine] here?
**A.** The IC50 was ≤ 60 nM.
